Legend:
[1] = Cytotoxicity assay (CellTiter Glo); assay type: cell-based; details: human; HepG2.2.15 cells, five days post treatment
Protocol: The Invention Determined Cytotoxicity of the Compounds Against HepG2.2.15 Cells (Table 2)
HepG2.2.15 cells were seeded into 96-well plates (8000 cells per well) and cell viability was measured by the addition of 60 μL of CellTiter Glo reagent (Promega) five days post treatment with the compounds. Cell plates with CellTiter Glo added were shaken on a plate shaker for 20 min and then the chemiluminescence signal was stabilized at room temperature for 10 min. Chemiluminescence values were read using a microplate reader (Bio-TeK SYNERGY NEO2).
The concentration corresponding to 50% cytotoxicity (CC50) was fitted by graphpad prism software. The cytotoxicity was calculated by the formula: % Cytotoxicity=100−(chemiluminescence value of sample Well −average chemiluminescence value of blank medium column)/(average chemiluminescence value of DMSO column −average chemiluminescence value of blank medium column)*100

[2] = system: HBV (hepatitis B virus) in HepG2.2.15 cells; experiment: Cell-based anti-viral activity assay (HBV DNA in supernatant by quantitative PCR); details: 120 h, anti-HBV activity, HepG2.2.15 cells, 5 days, read-out: EC50 (HepG2.2.15)
Protocol: Cell-Based Anti-Viral Activity Assay
The Invention determined the anti-HBV (hepatitis B virus) activity of compounds in HepG2.2.15 cells (Table 1).
HepG2.2.15 is a cell line stably transfected with the HBV genome. HepG2.2.15 cells were cultured in DMEM (1X) with 10% fetal bovine serum (Corning), 100 U penicillin (Gibico), 100 μg/mL streptomycin (Gibico), 250 μg/mL geneticin (Gibco) and GlutaMAXTM-I medium (Invitrogen).
HepG2.2.15 cells were seeded into 96-well plates (4×10^4 cells in 100 μL of medium per well) and incubated overnight at 37° C. The test compounds were weighed and prepared as 10 mM stock solution with DMSO. The stock solutions of the compounds were diluted by a gradient of 3.16 times with DMSO, and then diluted by a gradient of 3.16 times with medium for 50 times. Finally, the diluted compound solutions were added to the cell plate with a total volume of 200 μL and the final DMSO concentration was 1%. The 96-well culture plates loaded with drugs were transferred to an incubator at 37° C. for 5 days. […] nucleic acid releasing agent was added to 96-well PCR reaction plate, and 2 μL of cell supernatant or HBV quantitative standards were added to the corresponding Wells. Centrifuged the plates to fully mix, and incubated at room temperature for 10 min to fully release nucleic acid. Quantified HBV DNA content by fluorescent quantitative PCR (CFX Connect Real-Time System) using Sanxiang Bio hepatitis B virus fluorescent quantitative diagnostic kit.
The standard curve was established by taking the logarithm of the copy number (IU/ml) of the HBV standard sample (log 10) as the abscordinate and the corresponding CT value as the ordinate. The copy number of the sample was calculated according to the corresponding CT of the positive sample and the standard curve, and the percentage of inhibition rate was calculated as follows: • % Inhibition=100-100*(sample HBV copy number−high concentration reference compound column HBV copy number)/DMSO column HBV copy number−high concentration reference compound column HBV copy number).

| SMILES | CC50 at 5 days [1] [nM] | EC50 [2] [nM] |
| --- | --- | --- |
| CCOC(=O)C1=C(CN2CCN3C(=O)N(C45CC(C(=O)O)(C4)C5)C[C@@H]3C2)NC(c2nccs2)=N[C@H]1c1cccc(F)c1C [Compound 1, 3-((S)-7-(((S)-5-(Ethoxycarbonyl)-6-(3-Fluoro-2-Methylphenyl)-2-(Thiazol-2-Yl)-3,6-Dihydropyrimidin-4-Yl)Methyl)-3-Oxohexahydroimidazo[1,5-a]Pyrazin-2(3H)-Yl)Bicyclo[1.1.1]Pentane-1-Carboxylic Acid] | > 50000 | 33 |
| CCOC(=O)C1=C(CN2CCN3C(=O)N(C45CC(CO)(C4)C5)C[C@@H]3C2)NC(c2nccs2)=N[C@H]1c1cccc(F)c1C [Compound 2, Ethyl (S)-4-(3-Fluoro-2-Methylphenyl)-6-(((S)-2-(3-(Hydroxymethyl)Bicyclo[1.1.1]Pentan-1-Yl)-3-Oxohexahydroimidazo[1,5-a]Pyrazin-7(1H)-Yl)Methyl)-2-(Thiazol-2-Yl)-1,4-Dihydropyrimidine-5-Carboxylate] | > 50000 | 3 |
| CCOC(=O)C1=C(CN2CCN3C(=O)N(CC45CC(C(=O)O)(C4)C5)C[C@@H]3C2)NC(c2nccs2)=N[C@H]1c1cccc(F)c1C [Compound 5, 3-(((S)-7-(((S)-5-(Ethoxycarbonyl)-6-(3-Fluoro-2-Methylphenyl)-2-(Thiazol-2-Yl)-3,6-Dihydropyrimidin-4-Yl)Methyl)-3-Oxohexahydroimidazo[1,5-a]Pyrazin-2(3H)-Yl)Methyl)Bicyclo[1.1.1]Pentane-1-Carboxylic Acid] | > 50000 | 73 |
| CCOC(=O)C1=C(CN2CCN3C(=O)N(C45CC(C#N)(C4)C5)C[C@@H]3C2)NC(c2nccs2)=N[C@H]1c1cccc(F)c1C [Compound 17, Ethyl (S)-6-(((S)-2-(3-Cyanobicyclo[1.1.1]Pentan-1-Yl)-3-Oxohexahydroimidazo[1,5-a]Pyrazin-7(1H)-Yl) Methyl)-4-(3-Fluoro-2-Methylphenyl)-2-(Thiazol-2-Yl)-1,4-Dihydropyrimidine-5-Carboxylate] | > 50000 | 5 |
| CCOC(=O)C1=C(CN2CCN3C(=O)N(C45CC(CF)(C4)C5)C[C@@H]3C2)NC(c2nccs2)=N[C@H]1c1cccc(F)c1C [Compound 18, Ethyl (S)-4-(3-Fluoro-2-Methylphenyl)-6-(((S)-2-(3-(Fluoromethyl)Bicyclo[1.1.1]Pentan-1-Yl)-3-Oxohexahydroimidazo[1,5-a]Pyrazin-7(1H)-Yl)Methyl)-2-(Thiazol-2-Yl)-1,4-Dihydropyrimidine-5-Carboxylate] | > 50000 | 3 |
| CCOC(=O)C1=C(CN2CCN3C(=O)N(C45CC(C(=O)NS(C)(=O)=O)(C4)C5)C[C@@H]3C2)NC(c2nccs2)=N[C@H]1c1cccc(F)c1C [Compound 28, Ethyl (S)-4-(3-Fluoro-2-Methylphenyl)-6-(((S)-2-(3-((Methylsulfonyl)Carbamoyl)Bicyclo[1.1.1]Pentan-1-Yl)-3-Oxohexahydroimidazo[1,5-a]Pyrazin-7(1H)-Yl)Methyl)-2-(Thiazol-2-Yl)-1,4-Dihydropyrimidine-5-Carboxylate] | > 50000 | 21 |
| CCOC(=O)C1=C(CN2CCN3C(=O)N(C45CC(NS(=O)(=O)C6CC6)(C4)C5)C[C@@H]3C2)NC(c2nccs2)=N[C@H]1c1cccc(F)c1C [Compound 29, Ethyl (S)-6-(((S)-2-(3-(Cyclopropanesulfonamido)Bicyclo[1.1.1]Pentan-1-Yl)-3-Oxohexahydroimidazo[1,5-a]Pyrazin-7(1H)-Yl)Methyl)-4-(3-Fluoro-2-Methylphenyl)-2-(Thiazol-2-Yl)-1,4-Dihydropyrimidine-5-Carboxylate] | > 50000 | 6 |
| CCOC(=O)C1=C(CN2CCN3C(=O)N(C45CC(CO)(C4)C5)C[C@@H]3[C@H]2C(=O)O)NC(c2nccs2)=N[C@H]1c1cccc(F)c1C [Compound 33, (8S,8aR)-7-(((S)-5-(Ethoxycarbonyl)-6-(3-Fluoro-2-Methylphenyl)-2-(Thiazol-2-Yl)-3,6-Dihydropyrimidin-4-Yl)Methyl)-2-(3-(Hydroxymethyl)Bicyclo[1.1.1]Pentan-1-Yl)-3-Oxooctahydroimidazo[1,5-a]Pyrazine-8-Carboxylic Acid] | > 50000 | 202 |
| CCOC(=O)C1=C(CN2CCN3C(=O)N(C45CC(CC(=O)O)(C4)C5)C[C@@H]3C2)NC(c2nccs2)=N[C@H]1c1ccc(F)cc1Cl [Compound 35] | > 50000 | 28 |
| COC(=O)C1=C(CN2CCN3C(=O)N(C45CC(CC(=O)O)(C4)C5)C[C@@H]3C2)NC(c2nccs2)=N[C@H]1c1ccc(F)c(F)c1C [Compound 41, 2-(3-((S)-7-(((S)-6-(3,4-Difluoro-2-Methylphenyl)-5-(Methoxycarbonyl)-2-(Thiazol-2-Yl)-3,6-Dihydropyrimidin-4-Yl)Methyl)-3-Oxohexahydroimidazo[1,5-a]Pyrazin-2(3H)-Yl)Bicyclo[1.1.1]Pentan-1-Yl)Acetic Acid] | – | 8 |
| CCOC(=O)C1=C(CN2CCN3C(=O)N(C45CC(C(C)(C)C(=O)O)(C4)C5)C[C@@H]3C2)NC(c2nccs2)=N[C@H]1c1cccc(F)c1C [Compound 42] | – | 11 |
| CCOC(=O)C1=C(CN2CCN3C(=O)N(C45CC(CC(=O)O)(C4)C5)C[C@@H]3[C@H]2COC)NC(c2nccs2)=N[C@H]1c1cccc(F)c1C [Compound 43, 2-(3-((8S,8aR)-7-(((S)-5-(Ethoxycarbonyl)-6-(3-Fluoro-2-Methylphenyl)-2-(Thiazol-2-Yl)-3,6-Dihydropyrimidin-4-Yl)Methyl)-8-(Methoxymethyl)-3-Oxohexahydroimidazo[1,5-a]Pyrazin-2(3H)-Yl)Bicyclo[1.1.1]Pentan-1-Yl)Acetic Acid] | – | 197 |
| CCOC(=O)C1=C(CN2CCN3C(=O)N(C45CC(C(O)C(=O)O)(C4)C5)C[C@@H]3C2)NC(c2nccs2)=N[C@H]1c1cccc(F)c1C (stereo partly drawn) [Compound 50, 2-(3-((S)-7-(((S)-5-(Ethoxycarbonyl)-6-(3-Fluoro-2-Methylphenyl)-2-(Thiazol-2-Yl)-3,6-Dihydropyrimidin-4-Yl)Methyl)-3-Oxohexahydroimidazo[1,5-a]Pyrazin-2(3H)-Yl)Bicyclo[1.1.1]Pentan-1-Yl)-2-Hydroxyacetic Acid] | – | 3 |
| CCOC(=O)C1=C(CN2CCN3C(=O)N(C45CC(C(OC)C(=O)O)(C4)C5)C[C@@H]3C2)NC(c2nccs2)=N[C@H]1c1cccc(F)c1C (stereo partly drawn) [Compound 51, 2-(3-((S)-7-(((S)-5-(Ethoxycarbonyl)-6-(3-Fluoro-2-Methylphenyl)-2-(Thiazol-2-Yl)-3,6-Dihydropyrimidin-4-Yl)Methyl)-3-Oxohexahydroimidazo[1,5-a]Pyrazin-2(3H)-Yl)Bicyclo[1.1.1]Pentan-1-Yl)-2-Methoxyacetic Acid] | – | 139 |
| CCOC(=O)C1=C(CN2CCN3C(=O)N(C45CCC(C(=O)O)(CC4)CC5)C[C@@H]3C2)NC(c2nccs2)=N[C@H]1c1ccc(F)c(F)c1C [Compound 54] | – | 3 |
| CCOC(=O)C1=C(CN2CCN3C(=O)N(C45CCC(CC(=O)O)(CC4)C5)C[C@@H]3C2)NC(c2nccs2)=N[C@H]1c1cccc(F)c1C [Compound 63, 2-(4-((S)-7-(((S)-5-(Ethoxycarbonyl)-6-(3-Fluoro-2-Methylphenyl)-2-(Thiazol-2-Yl)-3,6-Dihydropyrimidin-4-Yl)Methyl)-3-Oxohexahydroimidazo[1,5-a]Pyrazin-2(3H)-Yl)Bicyclo[2.2.1]Heptan-1-Yl)Acetic Acid] | – | 26 |
| CCOC(=O)C1=C(CN2CCN3C(=O)N(C45CCC(CC(=O)O)(CC4)C5)C[C@@H]3C2)NC(c2nccs2)=N[C@H]1c1ccc(F)cc1C [Compound 64, 2-(4-((S)-7-(((S)-5-(Ethoxycarbonyl)-6-(4-Fluoro-2-Methylphenyl)-2-(Thiazol-2-Yl)-3,6-Dihydropyrimidin-4-Yl)Methyl)-3-Oxohexahydroimidazo[1,5-a]Pyrazin-2(3H)-Yl)Bicyclo[2.2.1]Heptan-1-Yl)Acetic Acid] | – | 57 |
| CCOC(=O)C1=C(CN2CCN3C(=O)N(C45CCC(CC(=O)O)(CC4)C5)C[C@@H]3C2)NC(c2nccs2)=N[C@H]1c1ccc(F)cc1Cl [Compound 65, 2-(4-((S)-7-(((R)-6-(2-Chloro-4-Fluorophenyl)-5-(Ethoxycarbonyl)-2-(Thiazol-2-Yl)-3,6-Dihydropyrimidin-4-Yl)Methyl)-3-Oxohexahydroimidazo[1,5-a]Pyrazin-2(3H)-Yl)Bicyclo[2.2.1]Heptan-1-Yl)Acetic Acid] | – | 42 |

Reference: patent publication US20240166649A1, “DIHYDROPYRIMIDINE COMPOUND, PREPARATION METHOD THEREFOR AND APPLICATION THEREOF” (Shanghai Visonpharma Co., Ltd., priority 2021, published 2024)
